Test system: high-risk patients undergoing CABG surgery with cardiopulmonary bypass
Test: Intravenous P5P in high-risk patients undergoing CABG surgery (Example 2, protocol of Example 1 repeated)
Format: in vivo, human
Details: CK-MB cut-off 100 ng/ml
Protocol: The randomized, double-blind placebo-controlled, dose-ranging, parallel-arm multi-center study on high-risk patients undergoing CABG surgery with cardiopulmonary bypass of Experiment 1 is repeated using a protocol as described in Experiment 1, with the difference that the placebo/drug is administered intravenously, in an intravenous dose pharmacokinetically approximating the dosage given enterally in Experiment 1.
Approximately 3000 high-risk pre-CABG patients are screened and randomized to […], prior to their bypass surgery, as follows. Patients are either placed in a control group (placebo), treated intravenously with 5.00 mg/day of P5P, or treated intravenously with 23.33 mg/day of P5P.
Patients are identified as “high risk” if they had two or more of the following risk factors:
• Age greater than 65 years; • Current smoker; • History of diabetes mellitus requiring treatment other than diet; • Evidence of left ventricular dysfunction or congestive heart failure; • History of a previous non-disabling stroke, transient ischemic attack, or carotid endarterectomy; • Urgent CABG intervention defined as the need to stay in the hospital (although the patient may be operated on within a normal scheduling routine); • History of myocardial infarction that occurred more than 48 hours but less than 6 weeks prior to CABG surgery; • Prior peripheral artery surgery or angioplasty; • Moderate renal dysfunction defined as creatinine>133 μmol/L (1.5 mg/dl), but <250 μmol/L (2.8 mg/dl); and • Presence of at least one asymptomatic carotid artery stenosis (>50%) either in one or two carotid arteries.
The first dose of study medication is administered at 3-10 hours prior to CABG surgery. In the event of surgery delay or rescheduling, a second pre-operative dose of P5P is administered so that all patients receive study medication 3-10 hours before surgery. Treatment continues for 30 days after surgery (post operative day (POD) 30). Patients receive follow-up evaluations up to and including postoperative day on POD 30 and on POD 90.
Patients are measured for combined incidence of cardiovascular death and nonfatal myocardial infarction (MI) up to and including post-operative day 30 (POD 30). Patients are also measured for nonfatal myocardial infarction alone.
All deaths without an identifiable non-cardiovascular cause are considered of cardiovascular origin.
Cerebral infarction (stroke) is defined clinically as any new sudden onset focal neurological deficit lasting at least 24 hours as assessed by a neurologist and after neuroimaging (computed tomography [CT] brain scan or magnetic resonance imaging [MRI]) excludes an intracerebral hemorrhage. […]

Cc1ncc(COP(=O)(O)O)c(C=O)c1O [P5P, 3-hydroxy-2-methyl-5-[(phosphonooxy)methyl]-4-pyridine-carboxaldehyde]
highly effective: reducing instances of myocardial infarction (intravenous 5.00 mg/day) | reducing total incidents (myocardial infarction, cerebral infarction, or death) (intravenous 5.00 mg/day, better than 23.33 mg/day) | reducing instances of myocardial infarction (intravenous 23.33 mg/day) | reducing total incidents (myocardial infarction, cerebral infarction, or death) (intravenous 23.33 mg/day)
